Measured values published in patent US20230255953A1, “USE OF ROLUPERIDONE IN PREVENTING RELAPSE IN SCHIZOPHRENIA PATIENTS” (Minerva Neurosciences, Inc., priority 2022, published 2023).

Tests used:
[1] = system: patients with negative symptoms of schizophrenia; test: Study #1 (MIN-101C03) Phase 2b: PANSS-derived scores (PSM, NSFS, total, subscales); assay type: in vivo, human; settings: for Change from Baseline LS Mean: 3-Factor General Psychopathology Subscale Score / Change from Baseline LS Mean: 3-Factor Negative Subscale Score / Change from Baseline LS Mean: 3-Factor Positive Subscale Score / Change from Baseline LS Mean: 5-Factor Activation Score (PSM) / Change from Baseline LS Mean: 5-Factor Autistic Preoccupation Score (PSM) / Change from Baseline LS Mean: 5-Factor Dysphoric Mood Score (PSM) / Change from Baseline LS Mean: 5-Factor Positive Score (PSM) / Change from Baseline LS Mean: NSFS (post-hoc) / Change from Baseline LS Mean: PANSS Negative Factor Score (pentagonal structure model) / Change from Baseline LS Mean: PANSS Total Score / Effect Size vs Placebo: 3-Factor General Psychopathology Subscale Score / Effect Size vs Placebo: 3-Factor Negative Subscale Score / Effect Size vs Placebo: 3-Factor Positive Subscale Score / Effect Size vs Placebo: 5-Factor Activation Score (PSM) / Effect Size vs Placebo: 5-Factor Autistic Preoccupation Score (PSM) / Effect Size vs Placebo: 5-Factor Dysphoric Mood Score (PSM) / Effect Size vs Placebo: 5-Factor Positive Score (PSM) / Effect Size vs Placebo: NSFS (post-hoc) / Effect Size vs Placebo: PANSS Negative Factor Score (pentagonal structure model) / Effect Size vs Placebo: PANSS Total Score: ITT
From the text: “PANSS”, as used herein, refers to the positive and negative syndrome scale, which is used by physicians and clinicians to measure the severity of the symptoms in a schizophrenia patient. The scale is divided into three parts, a positive scale, which provides a “PANSS positive subscore”, a negative scale, which provides a “PANSS negative subscore”, and general psychopathology scale. The sum of these three parts provides a PANSS total score, which ranges from 30 to 210 (where higher scores indicate more severe symptoms). (Kay, S. R., et al. “The positive and negative syndrome scale (PANSS) for schizophrenia,” Schizophr Bulletin, 13(2), 261-276 (1987)).
As used herein, PANSS Marder's negative symptoms factor score (“NSFS”), refers to selection of seven of the PANSS items used by physicians and clinicians to measure the severity of the negative symptoms in a schizophrenia patient. (See Tables 5A and 5B.) The NSFS total score ranges from 7 to 49. (Marder, S. R. et al. “The effects of risperidone on the five dimensions of schizophrenia derived by factor analysis: combined results of the North American trials,” J Clin Psychiatry. 1997; 58:538-46.)
The PANSS was designed to be used in patients with schizophrenia to measure the overall severity of schizophrenic symptoms. The scale has been validated in different cultures and languages and is reliable and acceptable to regulatory health authorities as a primary scale to determine efficacy of intervention in schizophrenia. The name refers to the 2 types of symptoms in schizophrenia, as defined by the American Psychiatric Association: positive symptoms, which refer to an excess or distortion of normal functions (e.g., hallucinations and delusions), and negative symptoms, which represent a diminution or loss of normal functions.
The patient is rated from 1 to 7 on 30 different symptoms based on the interview as well as reports of family members or primary care hospital workers. The original PANSS included 3 groups of symptoms and subscale scores Positive, Negative, and General Psychopathology. Since the inception of PANSS, investigators have proposed additional grouping (structures) of PANSS such as the Marder structure (Marder, S. R. et al. “Issues and perspectives in designing clinical trials for negative symptoms in schizophrenia: consensus statements,” Schizophrenia Bulletin Open. 2020; 1(1). doi:10.1093/schizbullopen/sgz001) and the White structure (White, L. et al. “Empirical assessment of the factorial structure of clinical symptoms in schizophrenia”. Psychopathology. 1997; 30263-274).
The PANSS was assessed at the time points described in Table 4.
The PANSS-derived endpoints used in these studies and the integrated analyses are described in Table 5A and a summary of the individual PANSS items used by physicians and clinicians to measure the severity of the symptoms in a schizophrenia patient is provided in Table 5B. The scale is divided into three parts, a positive scale, which provides a “PANSS positive subscore”, a negative scale, which provides a “PANSS negative subscore”, and general psychopathology scale. The sum of these three parts provides a PANSS total score, which ranges from 30 to 210 (where higher scores indicate more severe symptoms). (See Kay, S. R., et al. “The positive and negative syndrome scale (PANSS) for schizophrenia,” Schizophr Bulletin, 13(2), 261-276 (1987) and Gopal, S., et al. “Improvement of Negative Symptoms in Schizophrenia with Paliperidone Palmitate 1-Month and 3-Month Long-Acting Injectables: Results from a Phase 3 Non-Inferiority Study” Neuropsychiatric Disease and Treatment, 681-690, DOI: 10.2147/NDT.5226296, both of which are incorporated by reference.) […]

[2] = system: dopaminergic (DA) receptors; settings: background statement; cited from earlier work

For “1H-Isoindol-1-one,2-[ [1-[2-(4-fluorophenyl)-2-oxoethyl]-4-piperidinyl]methyl]-2,3-dihydro-, hydrochloride, hydrate (1:1:2) [Roluperidone]”, the “Effect Size vs Placebo: 20% reduction in NSFS responders” value ([1]; 32 mg QD, Week 12 DB) was 0.06, the “Effect Size vs Placebo: 30% reduction in NSFS responders” value ([1]; 32 mg QD, Week 12 DB) was 0 and the “Number of Patients with 20% reduction in NSFS at Week 12” value ([1]; 32 mg QD, Week 12 DB) was 15/51. The “Number of Patients with 30% reduction in NSFS at Week 12” value ([1]; 32 mg QD, Week 12 DB) was 2/51, the “Patients with 20% reduction in NSFS at Week 12 (%)” value ([1]; 32 mg QD, Week 12 DB) was “(29%)” and the “Patients with 30% reduction in NSFS at Week 12 (%)” value ([1]; 32 mg QD, Week 12 DB) was “(4%)”. For the same substance, the “Change from Baseline LS Mean: 3-Factor General Psychopathology Subscale Score” value ([1]; 32 mg QD, Week 12 DB) was −1.07, the “Change from Baseline LS Mean: 3-Factor Negative Subscale Score” value ([1]; 32 mg QD, Week 12 DB) was −3.35 and the “Change from Baseline LS Mean: 3-Factor Positive Subscale Score” value ([1]; 32 mg QD, Week 12 DB) was 0.46. For the same substance, the “Change from Baseline LS Mean: 5-Factor Activation Score (PSM)” value ([1]; 32 mg QD, Week 12 DB) was −0.05, the “Change from Baseline LS Mean: 5-Factor Autistic Preoccupation Score (PSM)” value ([1]; 32 mg QD, Week 12 DB) was −0.85 and the “Change from Baseline LS Mean: 5-Factor Dysphoric Mood Score (PSM)” value ([1]; 32 mg QD, Week 12 DB) was −0.32. The “Change from Baseline LS Mean: 5-Factor Positive Score (PSM)” value ([1]; 32 mg QD, Week 12 DB) was 0.58, the “Change from Baseline LS Mean: NSFS (post-hoc)” value ([1]; 32 mg QD, Week 12 DB) was −3.43 and the “Change from Baseline LS Mean: PANSS Negative Factor Score (pentagonal structure model)” value ([1]; 32 mg QD, Week 12 DB) was −3.07. For the same substance, the “Change from Baseline LS Mean: PANSS Total Score” value ([1]; 32 mg QD, Week 12 DB) was −3.66, the “Effect Size vs Placebo: 3-Factor General Psychopathology Subscale Score” value ([1]; 32 mg QD, Week 12 DB) was 0.23 and the “Effect Size vs Placebo: 3-Factor Negative Subscale Score” value ([1]; 32 mg QD, Week 12 DB) was 0.54. The “Effect Size vs Placebo: 3-Factor Positive Subscale Score” value ([1]; 32 mg QD, Week 12 DB) was 0.16, the “Effect Size vs Placebo: 5-Factor Activation Score (PSM)” value ([1]; 32 mg QD, Week 12 DB) was 0.44 and the “Effect Size vs Placebo: 5-Factor Autistic Preoccupation Score (PSM)” value ([1]; 32 mg QD, Week 12 DB) was 0.08. The “Effect Size vs Placebo: 5-Factor Dysphoric Mood Score (PSM)” value ([1]; 32 mg QD, Week 12 DB) was 0.11, the “Effect Size vs Placebo: 5-Factor Positive Score (PSM)” value ([1]; 32 mg QD, Week 12 DB) was −0.13 and the “Effect Size vs Placebo: NSFS (post-hoc)” value ([1]; 32 mg QD, Week 12 DB) was 0.61. The “Effect Size vs Placebo: PANSS Negative Factor Score (pentagonal structure model)” value ([1]; 32 mg QD, Week 12 DB) was 0.45, the “Effect Size vs Placebo: PANSS Total Score” value ([1]; 32 mg QD, Week 12 DB) was 0.34 and the “Effect Size vs Placebo: 20% reduction in NSFS responders” value ([1]; 64 mg QD, Week 12 DB) was 0.17. The “Effect Size vs Placebo: 30% reduction in NSFS responders” value ([1]; 64 mg QD, Week 12 DB) was 0.15, the “Number of Patients with 20% reduction in NSFS at Week 12” value ([1]; 64 mg QD, Week 12 DB) was 18/54 and the “Number of Patients with 30% reduction in NSFS at Week 12” value ([1]; 64 mg QD, Week 12 DB) was 7/54. For the same substance, the “Change from Baseline LS Mean: 3-Factor General Psychopathology Subscale Score” value ([1]; 64 mg QD, Week 12 DB) was −2.58, the “Change from Baseline LS Mean: 3-Factor Negative Subscale Score” value ([1]; 64 mg QD, Week 12 DB) was −3.82 and the “Change from Baseline LS Mean: 3-Factor Positive Subscale Score” value ([1]; 64 mg QD, Week 12 DB) was 0.36. For the same substance, the “Change from Baseline LS Mean: 5-Factor Activation Score (PSM)” value ([1]; 64 mg QD, Week 12 DB) was −0.17, the “Change from Baseline LS Mean: 5-Factor Autistic Preoccupation Score (PSM)” value ([1]; 64 mg QD, Week 12 DB) was −1.21 and the “Change from Baseline LS Mean: 5-Factor Dysphoric Mood Score (PSM)” value ([1]; 64 mg QD, Week 12 DB) was −1.04. For the same substance, the “Change from Baseline LS Mean: 5-Factor Positive Score (PSM)” value ([1]; 64 mg QD, Week 12 DB) was −0.25, the “Change from Baseline LS Mean: NSFS (post-hoc)” value ([1]; 64 mg QD, Week 12 DB) was −3.9 and the “Change from Baseline LS Mean: PANSS Negative Factor Score (pentagonal structure model)” value ([1]; 64 mg QD, Week 12 DB) was −3.50. The “Change from Baseline LS Mean: PANSS Total Score” value ([1]; 64 mg QD, Week 12 DB) was −5.83, the “Effect Size vs Placebo: 3-Factor General Psychopathology Subscale Score” value ([1]; 64 mg QD, Week 12 DB) was 0.56 and the “Effect Size vs Placebo: 3-Factor Negative Subscale Score” value ([1]; 64 mg QD, Week 12 DB) was 0.70. The “Effect Size vs Placebo: 3-Factor Positive Subscale Score” value ([1]; 64 mg QD, Week 12 DB) was 0.20, the “Effect Size vs Placebo: 5-Factor Activation Score (PSM)” value ([1]; 64 mg QD, Week 12 DB) was 0.49 and the “Effect Size vs Placebo: 5-Factor Autistic Preoccupation Score (PSM)” value ([1]; 64 mg QD, Week 12 DB) was 0.22. For the same substance, the “Effect Size vs Placebo: 5-Factor Dysphoric Mood Score (PSM)” value ([1]; 64 mg QD, Week 12 DB) was 0.43, the “Effect Size vs Placebo: 5-Factor Positive Score (PSM)” value ([1]; 64 mg QD, Week 12 DB) was 0.24 and the “Effect Size vs Placebo: NSFS (post-hoc)” value ([1]; 64 mg QD, Week 12 DB) was 0.78. For the same substance, the “Effect Size vs Placebo: PANSS Negative Factor Score (pentagonal structure model)” value ([1]; 64 mg QD, Week 12 DB) was 0.57, the “Effect Size vs Placebo: PANSS Total Score” value ([1]; 64 mg QD, Week 12 DB) was 0.57 and the “PANSS PSM negative factor score, course in OL period” value ([1]; OL period (placebo crossed over) and whole study) was “trend of improvement continued”. For the same substance, the Affinity [2] was “very low or no affinity”.
